This is an account of results in patent US9505753B2, “Inhibitors of D-amino acid oxidase” (THE JOHNS HOPKINS UNIVERSITY, priority 2012, dated 2016).

Chain of human recombinant D-amino acid oxidase (P14920 whole entry): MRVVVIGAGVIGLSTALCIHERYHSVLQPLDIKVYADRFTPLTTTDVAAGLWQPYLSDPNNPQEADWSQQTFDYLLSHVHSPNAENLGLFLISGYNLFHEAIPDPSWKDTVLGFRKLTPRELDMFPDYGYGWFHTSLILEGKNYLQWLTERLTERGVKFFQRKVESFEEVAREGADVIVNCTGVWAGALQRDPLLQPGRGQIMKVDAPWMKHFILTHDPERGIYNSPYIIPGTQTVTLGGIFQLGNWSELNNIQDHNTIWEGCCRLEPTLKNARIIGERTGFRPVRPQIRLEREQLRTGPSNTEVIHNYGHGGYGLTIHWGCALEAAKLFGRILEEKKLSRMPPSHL

The target of one assay is human recombinant D-amino acid oxidase (Homo sapiens (Human), UniProt P14920). Put plainly: In vitro D-amino acid oxidase (DAAO) assay, 96-well plate. The class given is biochemical. The note with it: human recombinant DAAO; D-serine 5 mM, FAD 1 μM, 20 min, room temperature, Tris buffer pH 8.5; read-out: Inhibition of DAAO IC50. Here is the method:
A reliable 96-well plate D-amino acid oxidase (DAAO) assay was developed based on previously published reports (J. Biol. Chem. 277: 27782 (2002)). […] All reactions were carried out for 20 min at room temperature in a 100-μL volume in Tris buffer (50 mM, pH 8.5). Additionally, stock solutions and serial dilutions of potential DAO inhibitors were made in 10:90 DMSO:buffer with a final assay DMSO concentration of 1%.
For the molecule `O=c1[nH]c(=O)n(CCN2CCc3ccccc3C2)nc1O` [Compound 12d, 2-(2-(3,4-Dihydroisoquinolin-2(1H)-yl)ethyl)-6-hydroxy-1,2,4-triazine-3,5(2H,4H)-dione], the concentration for half-maximal inhibition (IC50) was 700 nM. The same measure, in the same setting: the result for `O=c1[nH]c(=O)n(Cc2ccccc2)nc1O` [Compound 5t, 2-Benzyl-6-hydroxy-1,2,4-triazine-3,5(2H,4H)-dione] reads 9000 nM; that for `O=c1[nH]c(=S)n(CCc2ccccc2)nc1O` [Compound 16, 6-Hydroxy-2-phenethyl-3-thioxo-3,4-dihydro-1,2,4-triazin-5(2H)-one], 50 nM; that for `O=c1[nH]c(=O)n(CCN2CCN(c3ccccc3F)CC2)nc1O` [Compound 12c, 2-(2-(4-(2-Fluorophenyl)piperazin-1-yl)ethyl)-6-hydroxy-1,2,4-triazine-3,5(2H,4H)-dione], 3000 nM.

On to `COc1cccc(CCn2nc(O)c(=O)[nH]c2=O)c1` [Compound 5w, 6-Hydroxy-2-(3-methoxyphenethyl)-1,2,4-triazine-3,5(2H,4H)-dione], for which the half-maximal inhibitory concentration (IC50) came to 100 nM. The same measure, in the same setting: in the case of `O=c1[nH]c(=O)n(Cc2cccc3cccnc23)nc1O` [Compound 25a, 6-Hydroxy-2-(quinolin-8-ylmethyl)-1,2,4-triazine-3,5(2H,4H)-dione] it was 3000 nM; in that of `O=c1[nH]c(=O)n(CCc2cccc(Oc3ccccc3)c2)nc1O` [Compound 5ad, 6-Hydroxy-2-(3-phenoxyphenethyl)-1,2,4-triazine-3,5(2H,4H)-dione], 300 nM; in that of `O=c1[nH]c(=O)n(CCc2cccc3ccccc23)nc1O` [Compound 5n, 6-Hydroxy-2-(2-(naphthalen-1-yl)ethyl)-1,2,4-triazine-3,5(2H,4H)-dione], 100 nM.

On to `O=c1[nH]c(=O)n(CCc2ccccc2)nc1O` [Compound 5a, 6-Hydroxy-2-phenethyl-1,2,4-triazine-3,5(2H,4H)-dione], for which the concentration for half-maximal inhibition (IC50) was found to be 80 nM. The same measure, in the same setting: the result for `CC(Cc1ccccc1)n1nc(O)c(=O)[nH]c1=O` (stereo not drawn) [Compound 10k, 6-Hydroxy-2-(1-phenylpropan-2-yl)-1,2,4-triazine-3,5(2H,4H)-dione] reads 300 nM.

Take `O=c1[nH]c(=O)n(CCc2cccc(C(F)(F)F)c2)nc1O` [Compound 5l, 6-Hydroxy-2-(3-(trifluoromethyl)phenethyl)-1,2,4-triazine-3,5(2H,4H)-dione]: the half-maximal inhibitory concentration (IC50) was determined as 90 nM. The same measure, in the same setting: in the case of `O=c1[nH]c(=O)n(CCc2ccccc2F)nc1O` [Compound 5d, 2-(2-Fluorophenethyl)-6-hydroxy-1,2,4-triazine-3,5(2H,4H)-dione] it was 80 nM. Still for that read-out and setting: the result for `O=c1[nH]c(=O)n(CCc2cccc(O)c2)nc1O` [Compound 5wp, 6-Hydroxy-2-(3-hydroxyphenethyl)-1,2,4-triazine-3,5(2H,4H)-dione] reads 100 nM; that for `O=c1[nH]c(=O)n(CCc2ccc(-c3ccccc3)cc2)nc1O` [Compound 5o, 2-(2-(Biphenyl-4-yl)ethyl)-6-hydroxy-1,2,4-triazine-3,5(2H,4H)-dione], 30 nM; that for `O=c1[nH]c(=O)n(CCn2ccc3ccccc32)nc1O` [Compound 10e, 2-(2-(1H-indol-1-yl)ethyl)-6-hydroxy-1,2,4-triazine-3,5(2H,4H)-dione], 100 nM. The same measure, in the same setting: in the case of `CC(C)CCn1nc(O)c(=O)[nH]c1=O` [Compound 5q, 6-Hydroxy-2-isopentyl-1,2,4-triazine-3,5(2H,4H)-dione] it was 300 nM; in that of `O=c1[nH]c(=O)n(Cc2cccc3cc(Br)ccc23)nc1O` [Compound 25d, 2-((6-Bromonaphthalen-1-yl)methyl)-6-hydroxy-1,2,4-triazine-3,5(2H,4H)-dione], 50 nM; in that of `O=c1[nH]c(=O)n(CCc2ccc(O)cc2)nc1O` [Compound 5xp, 6-Hydroxy-2-(4-hydroxyphenethyl)-1,2,4-triazine-3,5(2H,4H)-dione], 100 nM. Turning to `O=c1[nH]c(=O)n(CCn2c3ccccc3c3ccccc32)nc1O` [Compound 10i, 2-(2-(9H-carbazol-9-yl)ethyl)-6-hydroxy-1,2,4-triazine-3,5(2H,4H)-dione], the IC50 was 7000 nM.

Take `O=c1[nH]c(=O)n(Cc2cccc3c(F)cccc23)nc1O` [Compound 10s, 2-((5-Fluoronaphthalen-1-yl)methyl)-6-hydroxy-1,2,4-triazine-3,5(2H,4H)-dione]: the IC50 came out at 80 nM. Still for that read-out and setting: the result for `COc1ccccc1CCn1nc(O)c(=O)[nH]c1=O` [Compound 5v, 6-Hydroxy-2-(2-methoxyphenethyl)-1,2,4-triazine-3,5(2H,4H)-dione] reads 200 nM; that for `O=c1[nH]c(=O)n(CCc2ccccc2O)nc1O` [Compound 5vp, 6-Hydroxy-2-(2-hydroxyphenethyl)-1,2,4-triazine-3,5(2H,4H)-dione], 60 nM.

In the case of `O=c1[nH]c(=O)n(CCc2ccccn2)nc1O` [Compound 10l, 6-Hydroxy-2-(2-(pyridin-2-yl)ethyl)-1,2,4-triazine-3,5(2H,4H)-dione], the IC50 is 900 nM. Same read-out and setting: the result for `O=c1[nH]c(=O)n(CCn2ncc3ccccc32)nc1O` [Compound 10h, 2-(2-(1H-indazol-1-yl)ethyl)-6-hydroxy-1,2,4-triazine-3,5(2H,4H)-dione] reads 200 nM. On to `O=c1[nH]c(=O)n(C[C@@H]2C[C@H]2c2ccccc2)nc1O` [Compound 10n, 6-Hydroxy-2-(((1R,2R)-2-phenylcyclopropyl)methyl)-1,2,4-triazine-3,5(2H,4H)-dione], for which the half-maximal inhibitory concentration (IC50) is 400 nM. On the same count and under the same terms, in the case of `Cc1cccc(CCn2nc(O)c(=O)[nH]c2=O)c1` [Compound 5i, 6-Hydroxy-2-(3-methylphenethyl)-1,2,4-triazine-3,5(2H,4H)-dione] it was 60 nM. Same read-out and setting: in the case of `Cn1nc(O)c(=O)[nH]c1=O` [Compound 5p, 6-Hydroxy-2-methyl-1,2,4-triazine-3,5(2H,4H)-dione] it was 3000 nM; in that of `O=c1[nH]c(=O)n(Cc2cccc3ccccc23)nc1O` [Compound 5u, 6-Hydroxy-2-(naphthalen-1-ylmethyl)-1,2,4-triazine-3,5(2H,4H)-dione], 50 nM.

With `O=c1[nH]c(=O)n(Cc2cccc3[nH]ccc23)nc1O` [Compound 10o, 2-((1H-indol-4-yl)methyl)-6-hydroxy-1,2,4-triazine-3,5(2H,4H)-dione], the IC50 is 200 nM. Still for that read-out and setting: in the case of `O=c1[nH]c(=O)n(CCc2ccc(F)cc2)nc1O` [Compound 5b, 2-(4-Fluorophenethyl)-6-hydroxy-1,2,4-triazine-3,5(2H,4H)-dione] it was 60 nM; in that of `O=c1[nH]c(=O)n(CCc2cccc(Cl)c2)nc1O` [Compound 5f, 2-(3-Chlorophenethyl)-6-hydroxy-1,2,4-triazine-3,5(2H,4H)-dione], 60 nM.

Regarding `O=c1[nH]c(=O)n(Cc2ccc3ccccc3c2)nc1O` [Compound 5aa, 6-Hydroxy-2-(naphthalen-2-ylmethyl)-1,2,4-triazine-3,5(2H,4H)-dione], the IC50 was determined as 30 nM. Still for that read-out and setting: the result for `O=c1[nH]c(=O)n(CCCc2ccccc2)nc1O` [Compound 5s, 6-Hydroxy-2-(3-phenylpropyl)-1,2,4-triazine-3,5(2H,4H)-dione] reads 2000 nM; that for `O=c1[nH]c(=O)n(Cc2cccc3ccsc23)nc1O` [Compound 10q, 2-(Benzo[b]thiophen-7-ylmethyl)-6-hydroxy-1,2,4-triazine-3,5(2H,4H)-dione], 2000 nM. As to `O=c1[nH]c(=O)n(Cc2ccc(Oc3ccccc3F)cc2)nc1O` [Compound 5ae, 2-(4-(2-Fluorophenoxyl)benzyl)-6-hydroxy-1,2,4-triazine-3,5(2H,4H)-dione], the IC50 stood at 300 nM. In the case of `O=c1[nH]c(=O)n(CC(F)(F)c2ccccc2)nc1O` [Compound 10a, 2-(2,2-Difluoro-2-phenylethyl)-6-hydroxy-1,2,4-triazine-3,5(2H,4H)-dione], the half-inhibitory concentration (IC50) was found to be 400 nM. As for `O=c1[nH]c(=O)n(CCc2ccc(Cl)cc2)nc1O` [Compound 5e, 2-(4-Chlorophenethyl)-6-hydroxy-1,2,4-triazine-3,5(2H,4H)-dione], the IC50 was 30 nM. The same measure, in the same setting: the result for `O=c1[nH]c(=O)n(Cc2ccc(-c3ccccc3)cc2)nc1O` [Compound 5af, 2-(Biphenyl-4-ylmethyl)-6-hydroxy-1,2,4-triazine-3,5(2H,4H)-dione] reads 300 nM.

`O=c1[nH]c(=O)n(CCc2ccc(Cl)c(Cl)c2)nc1O` [Compound 5y, 2-(3,4-Dichlorophenethyl)-6-hydroxy-1,2,4-triazine-3,5(2H,4H)-dione]: the IC50 turned out to be 30 nM. Consider `O=c1[nH]c(=O)n(Cc2cccc3cnccc23)nc1O` [Compound 10p, 6-Hydroxy-2-(isoquinolin-5-ylmethyl)-1,2,4-triazine-3,5(2H,4H)-dione], for which the IC50 was 300 nM.

With `O=c1[nH]c(=O)n(CCc2cccc(F)c2)nc1O` [Compound 5c, 2-(3-Fluorophenethyl)-6-hydroxy-1,2,4-triazine-3,5(2H,4H)-dione], the 50% inhibitory concentration (IC50) was 60 nM. Take `Cc1ccccc1CCn1nc(O)c(=O)[nH]c1=O` [Compound 5j, 6-Hydroxy-2-(2-methylphenethyl)-1,2,4-triazine-3,5(2H,4H)-dione]: the IC50 is 60 nM. Still for that read-out and setting: the result for `O=c1[nH]c(=O)n(Cc2ccc3cc(F)ccc3c2)nc1O` [Compound 5ab, 2-((6-Fluoronaphthalen-2-yl)methyl)-6-hydroxy-1,2,4-triazine-3,5(2H,4H)-dione] reads 100 nM; that for `O=c1[nH]c(=O)n(CCc2ccc(F)c(Cl)c2)nc1O` [Compound 5z, 2-(3-Chloro-4-fluorophenethyl)-6-hydroxy-1,2,4-triazine-3,5(2H,4H)-dione], 60 nM.

The assay is the same for the next values; noted with them: read-out: Inhibition of DAAO IC50.
As for `COc1ccc(CCn2nc(O)c(=O)[nH]c2=O)cc1` [Compound 5x, 6-Hydroxy-2-(4-methoxyphenethyl)-1,2,4-triazine-3,5(2H,4H)-dione], the IC50 came out at 100 nM.

In general, IC50 refers to the concentration at which inhibition is half-maximal.
